Here are results for 1 sequence from patent publication US20250262139A1, “POLYPEPTIDES AND METHODS FOR IMPROVING SKIN CONDITIONS” (INTERK PEPTIDE THERAPEUTICS LIMITED, priority 2020, published 2025).

Where no end group is shown, it is not given here.

Experiment [1] concerns human primary melanocytes. Nature of the experiment: melanin content after UVB, primary melanocytes. It is filed as cell-based. As to conditions: 10 μM for 24 hours prior to 2 kJ/m2 UVB; measured 24 hours later; relative to untreated UVB cells. On the procedure:
In brief, MM1418-C1 lightly pigmented melanoma cells or human primary melanocytes were grown in 24 well culture plates and treated with 10 μM
RSKAKNPLYRRRRRRRRR (“IK-3”) for 24 hours prior to being exposed to 2 kJ/m2 UVB radiation. Controls (not treated with RSKAKNPLYRRRRRRRRR) labelled “Con” and “UVB”, respectively, were exposed to either 0 or 2 KJ/m2 UVB radiation. Cell groups were returned to the incubator for 24 hours and then the levels of melanin and protein in the cells were measured spectrophotometrically. In each experiment triplicate samples were measured. Data shown in FIG. 19 indicate the average values+SEM (μg melanin/mg cell protein) exposed to 0 or 2 KJ/m2 UVB which had been pre-treated with 0 or 10 μM of RSKAKNPLYRRRRRRRRR 24 hours prior to being exposed to UVB radiation. The t-test (2-tailed) was used to determine statistical significance, *p<0.05, ***p<0.001.

Another experiment concerns primary keratinocytes. In words: CPD detection by IHC in keratinocytes 3 h following UV-irradiation. It is filed as cell-based. On the procedure: An in vitro assay was conducted allowing for densitometry analysis of CPD detection by IHC in keratinocytes 3 h following UV-irradiation in accordance with the following protocol.
Keratinocytes were harvested and cultured as described above at Example 2. Samples were split into two groups, being UV irradiated (UVR) and non-UV irradiated (SHAM). UV-irradiation was performed by solar simulated UV-irradiation for cells, also as described above at Example 2. Irradiation solution was PBS containing 5 mM D-glucose. […]
Harvested keratinocytes were plated on poly-D-lysine coated coverslips in 96 well plates and irradiated (or sham treated) as described above in at Example 2 in PBS containing 5 mM D-glucose. Keratinocytes were fixed 3 h after UV-irradiation. Immunohistochemistry and image analysis were performed as described previously (Gordon-Thomson et al., Photochem Photobiol Sci, 2012, 11 (12): 1837-47; Gupta et al., vide supra, Rybchyn M S et al., J Invest Dermatol, 2018; 138 (5): 1146-1156). Thymine dimers were detected using the anti-thymine dimer antibody (Sigma-Aldrich, Missouri, USA) at 10 μg/mL, and quantified as an index of CPD, as previously described (Douki T and Cadet J, Biochemistry, 2001, 40 (8): 2495-501).
Following irradiation, keratinocytes were treated with either Calcitriol, vehicle control (Veh) or the polypeptide IK34720 (SEQ ID NO: 3; “IK”) IK14800; (RSKAKNPLYRRRRRRRRR), RSKAKNPLY (IK94000) and RRRRRRRRR (IK00900), at concentrations of 5 μM.

For another experiment, the system named is human skin explants. Nature of the experiment: CPD formation in UV-irradiated human skin explants. In kind it is cell-based. On the procedure: Human skin removed at elective surgery was cleaned, dissected and cut into pieces of approx. 5 mm×5 mm. Each piece was placed in a well of a 96 well plate, with individual plates prepared to assess the effects 3 hrs post treatment. All samples were performed in triplicate for each treatment. Skin was subjected to UV-radiation from solar-simulated UV source for 1.5 h (UVR), or non-irradiation (SHAM). Given that human skin is thicker than mouse skin, human skin explants were exposed to a radiation dose three times higher than that used for mouse skin, i.e., 20 J/cm2 versus 7 J/cm^2, respectively, and the output spectrum of the laboratory solar simulator has previously been reported (Rybchyn M S et al, J Invest Dermatol. 2018 May; 138 (5): 1146-1156) and treated immediately after with a vehicle control, Calcitriol (1 nM) or the polypeptide IK34720 (SEQ ID NO: 3) at concentrations of 50 μM, 250 μM or 500 μM.
Samples harvested at 3 hrs were fixed, section, stained and quantified as described in Example 5.

The next experiment relates to Aquaporin 3. Nature of the experiment: Aquaporin 3 expression in keratinocytes exposed to HEV (blue) light. Particulars: NHEK exposed to HEV (blue) light; for increase in number of Aquaporin 3 positive cells: 470 nm, 3 days. In kind it is cell-based, human. How it is done: The ability of the polypeptide RSKAKNPLYRRRRRRRRR, to reverse HEV light (‘blue light”) induced damage to human keratinocytes was examined. In brief, Human Epidermal Keratinocytes (NHEK) which are representative of the epidermis were exposed to HEV light in the presence of the polypeptide RSKAKNPLYRRRRRRRRR, or untreated in the presence of the polypeptide RSKAKNPLYRRRRRRRRR.
The expression of Aquaporin 3 in cells (e.g. aquaporin 3 positive cells_was measured. Aquaporin 3 is found in the basolateral cell membrane and provides a pathway for water to exit cells. It is expressed in various tissues including the skin.
The experiment was carried out in quintuplicate in the following conditions (n=5): • Untreated NHEK • NHEK+IK14800 2,5 μM • NHEK+IK14800 5 μM • NHEK+IK14800 10 μM • NHEK+Blue light • NHEK+Blue light+IK14800 2.5 μM • NHEK+Blue light+IK14800 5 μM • NHEK+Blue light+IK14800 10 μM
Chronic blue light irradiation: one exposure per day for 3 days (220 joules—wavelength 470 nm). 4 days of treatment with the peptide (24 h before exposure to blue light and during the 3 days. The peptide was resuspended in milliQ water then diluted in the cell culture medium.
After treatment, the cells were washed and fixed with Formalin.
Finally, the nuclei were labelled with DAPI. The labelled proteins were observed and quantified by automated fluorescence microscopy Cellinsight CX7 High-Content Screening Platform (Thermofischer Data analysis
A statistical analysis was performed using Mann-Whitney by Prism software. The significance is correlated with the p-value: ns=no significant, […], **p-value<0.01, ***p-value<0.001.).

Another experiment concerns TGFβRII. In words: TGFβRII expression by Western analysis in UV-irradiated dermal fibroblasts. It is filed as cell-based, human. As to conditions: 1-10 μM added immediately following UV; 5 h post UV treatment; primary fibroblasts. On the procedure: Human skin dermal fibroblasts were cultured from keratome biopsies of healthy adult human skin. Cells were between passages three and six. For UV irradiation, subconfluent cells were washed once with phosphate-buffered saline (PBS) and irradiated with UV. Immediately following irradiation, negative control (vehicle) or 1 μM, 2.5 μM, 5 μM and 10 μM of IK34720 (“IK” in FIG. 3B, SEQ ID NO: 3) were added to the cell cultures.
For Western analysis, nuclear extracts were prepared, membrane fractions were prepared and resolved on 8% SDS-polyacrylamide gel electrophoresis, transferred to polyvinylidene difluoride membrane, and reacted with primary antibodies. Blots were visualized and quantified.

For a further experiment, the system named is Smad4. In words: Smad4 expression in UV treated cells (data not shown). In kind it is cell-based.
[2] abbreviates: 5 μM after ssUV, fixed 3 h after UV.

“RSKAKNPLYRRRRRRRRR (not fully specified (some residues)) [IK34720]”: the melanin content entry in experiment [1] is given as “significantly decreased melanin content”. Besides, in the experiment on primary keratinocytes (setting [2]), the “CPD levels compared to vehicle-treated UV-irradiated keratinocytes” value is “statistically significant (*p<0.05) reduction in CPD levels” and the “reduction in CPD levels compared to Calcitriol” value is on record as “comparable reduction in CPD levels to keratinocytes treated with Calcitriol”. Moreover, in the experiment on primary keratinocytes (10 μM, FIG. 8B), the “inhibition of CPD formation (average intensity of CPD staining) compared to 1,25D” value is reported as “more effective at inhibiting CPD formation than the positive control 1,25D”. Further, the “CPD levels, dose response” value with primary keratinocytes (0.5, 1, 2.5 or 5 μM after ssUV, fixed 3 h after UV) is on record as “decreases CPD levels in primary keratinocytes exposed to solar simulated UV-irradiation in a dose dependent manner”. For the same sequence, the “percentage of CPD positive cells” value in the experiment on human skin explants (500 μM, 3 hrs post irradiation, two individuals) is “statistically significantly reduced”. In the experiment with human skin explants (3 hrs post irradiation/treatment, Calcitriol 1 nM, IK34720 50, 250 or 500 μM), the “cells stained for CPDs” value is given as “fewer stained cells”. The “increase in number of Aquaporin 3 positive cells” value in the experiment on Aquaporin 3 (5 μM) is “+20%”. Moreover, the “increase in number of Aquaporin 3 positive cells” value in the experiment with Aquaporin 3 (10 μM) is listed as “+27%”. Also, the “basal expression of Aquaporin 3” value in the experiment on Aquaporin 3 (2.5, 5, 10 μM) is reported as “restores the basal expression of Aquaporin 3 in a dose dependent manner”. Moreover, the “TGFβRII expression in UV treated cells” value in the experiment with TGFβRII is given as “restored TGFβRII expression”. Further, the “Smad4 expression in UV treated cells” value with Smad4 is listed as “restored Smad4 expression”.
